# Data reported in US9014457B2, “Quantifying cell death” (UCL Business PLC, priority 2009, dated 2015).
# Entries after “also recorded” stand apart in the source; their conditions may differ. Structures can show the parent of a compound that is named as a salt. Where two headings read alike, the source gives them in different places. Where a SMILES comes first, the peptide text is derived from it. The star is where a group is joined. Cbz = O=C(OCc1ccccc1)*
# What was measured:
# [1] = in vivo; cited from earlier work
# [2] = phase III, patients with OAG; cited from earlier work
# neuronal cells = conditions: in vitro; cited from earlier work
# [3] = system: neurons within the contra-lateral Lateral geniculate Body; conditions: in vivo; cited from earlier work
# RGC [4] = conditions: in vivo; cited from earlier work
# [5] = system: astrocyte cultures (NADPH oxidase); conditions: cited from earlier work
# RGC [6] = conditions: rat, in vivo; cited from earlier work
# RGCs = conditions: in vitro and in vivo; cited from earlier work
# Bad = conditions: in vivo; cited from earlier work
# RGC [7] = assay: Chronic ocular hypertensive (OHT) experimental glaucoma model, in vivo imaging with annexin V and PI; parameters: species or system rat
# From the text: For the experimental glaucoma studies, the inventors used an established model of ocular hypertension. 18 rats underwent surgery to elevate intraocular pressure (IOP) by injection of hypertonic saline solution (1.8 M) into two episcleral veins as previously described (Cordeiro et al., 2004). Contralateral, unoperated eyes acted as controls. Animals were imaged at 0, 3, 8, and 16 weeks, with at least 3 animals at each time point being killed for histology immediately after imaging. A subgroup of animals (n=4) was treated at the time of surgery with the NMDA antagonist MK801 (0.6 nmol; Tocris Cookson Ltd, Bristol UK). These animals were imaged at 3 weeks and then killed for histology.
# (§1) Using a method the inventors have recently described, rats were given 2.5 μg of intravitreal Alexa Fluor 488 labelled annexin V in 5 μl PBS for identification of RGC apoptosis, 2 hours before in vivo imaging (Cordeiro et al., 2004). For mice, the inventors used 1 μl of a 0.25 mg/ml solution of IR-labelled annexin (Annexin-IR) in intravitreal injections as previously described (Schmitz-Valckenberg et al., 2008).
# (§2) In order to identify necrotic RGCs in rats (2 μl) and mice (1 μl), propidium iodide (PI; 0.4 mg/ml, 1% solution, Sigma-Aldrich, Dorset UK) was administered intravitreally at the same time as annexin, 2 hours before in vivo imaging. PI intercalates into nucleic acids, binding to double-stranded DNA, but only crosses the plasma membrane of non-viable cells. Cells that have lost membrane integrity are thus identified by fluorescent red PI staining throughout the nuclei.
# All rats had in vivo retinal imaging performed at regular and set intervals after experimental treatment, using a prototype Zeiss confocal scanning laser ophthalmoscope (cSLO), as previously described (Cordeiro et al., 2004; Maass et al., 2007). Imaging was performed under general anaesthesia with animals being held in a stereotaxic frame, with their pupils dilated. Different lasers and filters were used for the different fluorochromes: for excitation of Alexa Fluor 488 an Argon laser wavelength of 488 nm, and a solid state photodetector with a 521 nm cut-off filter and a 550 nm cut-on filter was employed; for DiI, a diode-pumped crystal green laser with a wavelength of 532 nm was used with 550 nm cut-off and 600 nm cut-on filters; the same laser was used for PI visualization but with a 650 nm cut-off. […] Colour and raw scatter plots of annexin and PI fluorescence intensity were constructed, so data could be analysed in a similar manner to data derived by in vitro FACS analysis. […] Fluorescence intensity counts derived from raw scatter plots were used to quantify each phase of cell death. […]
# RGC [8] = conditions: in comparison to the controls; cited from earlier work
# RGC [9] = assay: Abeta (Aβ25-35)-induced RGC death model, in vivo cSLO imaging with annexin V and PI; parameters: species or system mouse
# Method: (§3) For the analysis of Abeta, freshly made Aβ25-35 (Sigma-Aldrich, 3.40 nmol) (Dahlgren et al., 2002) was intravitreally injected into C57 mice (n=10) (Maass et al., 2007). Animals were imaged at 72 hours. For AD 3× Tg-AD studies, 4 eyes (all female, 14 months) with 2 eyes from aged control mice (PS1KI; female, 18 months) were assessed. 3× Tg-AD and control PS1KI mice were obtained from a colony (maintained at CeSI) established after a generous gift of Frank Laferla. Intravitreal phorbol myristate acetate (1 μl of 10 μg/ml) was administered to left eyes of 3× Tg-AD animals, at the same time as annexin V and PI.
# as §1, §2
# (§4) In mice, the inventors used instrumentation as previously described (Maass et al., 2007; Schmitz-Valckenberg et al., 2008), with a modified cSLO (Heidelberg Retina Angiograph 2, Heidelberg Engineering, Dossenheim, Germany) and a wide-field lens (55°). The fluorescein angiogram (488 nm argon laser) and indocyanine green (IR 790 nm diode laser) settings were used to detect PI and IR-labelled annexin respectively. The same software was used to analyse video sequenced images as described before with whole retinal monochrome images from each eye recorded and colourised. Dual-color images were produced by combining each of the grayscale images from the cSLO into the red (PI), and green (IR annexin) of an RGB color image.
# The left eye of each animal was treated with intravitreal 0.40 nmol MK801 at the same time as Abeta. Wide-angle retinal images were recorded 2 hours following intravitreal annexin (green) and PI (red), as previously described (Guo at al., 2006).
# To assess the relative levels of early apoptosis, late apoptosis and necrosis the inventors studied the co-localization of PI and annexin V using ImageJ software with the Intensity Correlation Analysis plugin (Li et al., 2004). Colour and raw scatter plots of annexin and PI fluorescence intensity were constructed from plugin-generated data for each animal. Corresponding scatter plots (blue) from the eyes shown in FIG. 8a-b are illustrated in FIG. 8c-d. The data were analysed in a similar manner to data derived by in vitro FACS analysis, with four quadrants (midlines shaded in colour overlay as red, green, blue and yellow) enabling separation of the different phases of cell death as annexin V positive (early apoptosis, green), annexin V and PI double positive (late apoptosis, yellow) and PI positive (necrosis, red). Thresholds were set automatically by the plugin for each analysis of each eye. The inventors then used fluorescence intensity counts from the raw scatter plots to quantify each phase of cell death.
# To further assess the analytical power of the technique, the inventors next investigated whether the level of oxidative stress in Abeta-treated eyes influenced the phase of cell death and whether this was possible to visualize in vivo. […] FIG. 8f-g are taken from the right untreated (F) and left PMA-treated (G) eye of an animal treated 72 hours previously with 3.40 nmol Aβ25-35. […]
# NMDA receptors = conditions: cited from earlier work
# RGC [10] = conditions: compared with MK-801; cited from earlier work
# RGC [11] = assay: Alzheimer Triple Transgenic (3× Tg-AD) model and aged PS1KI control, retinal cell death imaging; format: in vivo, mouse
# Method: as §3, §1, §2, §4
# However, in these studies aged (27 month) wild type congeners were not assessed.
# The inventors next investigated whether oxidative stress in AD eyes influenced the phase of cell death and whether this could be visualized in vivo. As intraneuronal Aβ accumulation and extracellular Abeta plaques are characteristics of this model (LaFerla et al., 2007), the inventors hypothesised that the addition of PMA would reveal whether the level of Abeta in this transgenic mouse is sufficient to modulate the retinal response in vivo (Abramov et al., 2005). […]
# [12] = system: ROS production in the retina; assay: ROS production in mouse retina in vivo visualized with DHE; conditions: intravitreal; vs vehicle/control eye
# Method: FIG. 12B. The effects of rotenone on ROS production in mouse retina in vivo. ROS production visualized with DHE (dihydroethidium). DHE is a non-fluorescent agent, reacting with ROS intracellularly to produce a fluorescent oxidative product which can be detected. Rotenone (50 uM, 1 ul) was intravitreally injected into the one eye (C57) and the same volume of vehicle (saline) injected into the contralateral eye. DHE (1 ul) was then injected intravitreally and both eyes imaged to detect ROS production using a SLO machine.
# FIG. 12C. The effects of PMA in producing ROS in mouse retina in vivo. PMA (50 ug/ml, 1 ul) was injected intravitreally into the one eye and saline (1 ul) into the contralateral eye. DHE (1 ul) was simultaneously injected for detecting ROS production.
# FIG. 12D. The effects of Aβ25-35 on ROS production in vivo. DHE was intravitreally injected into the both eyes of a mouse to detect ROS production.
# RGC [13] = conditions: in vitro and in vivo; cited from earlier work
# [14] = 3 weeks after elevated IOP induction
# [15] = Abeta + MK801 vs Abeta alone, 72 h
molecule,measurement,setting,value
Nc1nc2ccc(OC(F)(F)F)cc2s1 [Riluzole],ERG wave recovery,[1],enhance
same,pressure-induced apoptosis,[1],prevent or decrease
"CC12CC3CC(C)(C1)CC(N)(C3)C2 [memantine, 1-amino-3,5-dimethyl-adamantane]",primary end point,[2],ineffective
same,NMDA-induced neuronal death,neuronal cells,reduction
same,"shrinkage of neurons (LGB layers 1, 4, and 6)",[3],reduction
same,RGC loss,RGC [4],decreased
superoxide dismutase,PMA-induced lucigenin response,[5],reversed
Geranylgeranylacetone,RGC loss,RGC [6],marked reduction
same,expression of HSP-72,RGC [6],increase
"C[C@]12N[C@H](Cc3ccccc31)c1ccccc12 [MK801, (+)-5-methyl-10,11-dihydro-5H-dibenzo[a,d]cyclohepten-5,10-imine maleate]",RGC protection,RGCs,protect RGCs
same,Bad expression,Bad,decreasing
same,late phase apoptosis (Anx+/PI+),RGC [7]; [14],significant reduction; also recorded: significant decrease
same,levels of necrosis (PI+),RGC [7]; [14],significant reduction; also recorded: significant decrease
same,number of dying cells (Total cell death markers),"RGC [7]; 3 weeks after elevated IOP induction, p<0.05",significant reduction
same,numbers of annexin V and PI positive (apoptotic and necrotic) cells,"RGC [7]; MK801 0.6 nmol at the time of surgery, 3 weeks, vs untreated OHT",significantly reduced
same,number of apoptotic RGCs,RGC [8],reduction
same,number of annexin V and PI positive cells,"RGC [9]; 72 hours after intravitreal 3.40 nmol Aβ25-35, MK801 0.40 nmol intravitreal at the same time as Abeta, vs Abeta-only fellow eye",reduces
same,necrosis (PI+),RGC [9]; [15],clearly reduced; also recorded: reducing
same,number of cells in late phase apoptosis (Anx+/PI+),RGC [9]; [15],clearly reduced; also recorded: reducing
same,number of early phase apoptotic cells (Anx+),RGC [9]; [15],small increase
same,overall levels of cell death (Total),"RGC [9]; Abeta + MK801 vs Abeta alone, 72 h, co-localization scatter plot quantification",clearly reduced
same,neurotoxicity,NMDA receptors,neurotoxic effect
c1ccc2c(c1)[I+]c1ccccc1-2 [DPI],PMA-induced lucigenin response,[5],blocked
O=[N+]([O-])c1cc2nc(O)c(O)nc2cc1[N+](=O)[O-] [DNQX],RGC survival,RGC [10],greater enhancement
"CCCCCCCCCCCCCC(=O)O[C@@H]1[C@@H](C)[C@@]2(O)[C@@H](C=C(CO)C[C@]3(O)C(=O)C(C)=C[C@@H]23)[C@@H]2C(C)(C)[C@]12OC(C)=O [PMA, phorbol myristate acetate]",ROS generation (lucigenin),[5]; 1 μg/ml,increase
same,late apoptosis (Anx+/PI+),"RGC [11]; 3× Tg-AD model, p<0.05",decreased
same,increase in early phase apoptosis (Anx+),"RGC [11]; 14-month 3× Tg-AD, 2 hours after intravitreal PMA with annexin and PI",61.4%
same,increase in early phase apoptosis (Anx+),"RGC [11]; aged control (PS1KI, 18 month), 2 hours after intravitreal PMA",30.3%
same,necrosis,"RGC [11]; control eyes, p<0.05",decreased
same,ROS production in the retina (DHE fluorescence),[12],significantly higher levels of ROS production
same,overall levels of cell death (Total),"RGC [9]; Abeta + PMA vs Abeta, all treated animals, p<0.05",significantly (p<0.05) increases
same,number of cells in the early phase of apoptosis (Anx+),"RGC [9]; Abeta + PMA vs Abeta, p<0.05",significantly (p<0.05) increased; also recorded: significant (p<0.05) increase
same,annexin V (and PI) positive cells,"RGC [9]; PMA 0.016 nmol with annexin V and PI, 72 hours after 3.40 nmol Aβ25-35, imaging 2 hours later, vs vehicle eye",increased
"CC(C)C[C@@H](C=O)NC(=O)[C@H](CC(C)C)NC(=O)[C@@H](NC(=O)OCc1ccccc1)C(C)C [Z-VLL-CHO, N-benzyloxycarbonyl-Val-Leu-leucinal] (Cbz-Val-Leu-Leu-aldehyde)",RGC apoptosis,RGC [13],reduce
